Laboratory results taken from ChEMBL document CHEMBL1155519, “Discovery of N-phenyl-4-(thiazol-5-yl)pyrimidin-2-amine aurora kinase inhibitors” (J Med Chem, 2010).
Active and inactive are the calls of the source. The calls are words filed in the database; no cut-off is given here.

Columns and labels:
[1] = system: SAOS-2; test: Cytotoxicity against human Saos2 cells after 96 hrs by MTT assay; assay type: functional, cell-based; conditions: SAOS-2, 96 h
[2] = Apparent volume of distribution with respect to the bioavailability in Wistar rat at 10 mg/kg, po after 24 hrs by LC/MS/MS analysis; assay type: ADME, organism-based; conditions: in vivo, read-out: Vc/F
[3] = Inhibition of CK2
[4] = biological target: T1, Cytochrome P450 1A (Homo sapiens, UniProt P04798+P05177); test: Inhibition of CYP1A in human hepatocyte at 1 uM; assay type: ADME, cell-based; conditions: hepatocytes
[5] = Clearance in Wistar rat at 10 mg/kg, po after 24 hrs by LC/MS/MS analysis; assay type: ADME, organism-based; design: dose 10 mg/kg, route oral; conditions: in vivo
[6] = Antitumor activity against mouse P388D1 cells xenografted in BALB/c mouse assessed as increase in life span at 67 mg/kg, po administered BID on days 1-3 and 7-9 after tumor implantation relative to control
[7] = Inhibition of PKA
[8] = Inhibition of PKC
[9] = system: MIA PaCa-2; test: Cytotoxicity against human MIAPaCa2 cells after 96 hrs by MTT assay; assay type: functional, cell-based; conditions: MIA PaCa-2, 96 h
[10] = Dissociation constant, pKa by pH-metric titration method; assay type: physicochemical
[11] = Cmax in Wistar rat at 10 mg/kg, po after 24 hrs by LC/MS/MS analysis; assay type: ADME, organism-based; design: dose 10 mg/kg, route oral; conditions: in vivo
[12] = system: NCI-H460; test: Antitumor activity against human NCI-H460 cells xenografted in athymic mouse assessed as reduction in tumor volume at 75 mg/kg, po administered QD on day 1 after implantation for 5 days; assay type: functional, organism-based; design: dose 75 mg/kg
[13] = system: A2780; test: Cytotoxicity against human A2780 cells after 96 hrs by MTT assay; assay type: functional, cell-based; conditions: A2780, 96 h
[14] = Inhibition of CAMK2
[15] = system: SW-620; test: Induction of apoptosis in human SW620 cells assessed as early apoptotic cells at 1 uM after 48 hrs by TUNEL assay; assay type: functional
[16] = Elimination half life in Wistar rat at 10 mg/kg, po by LC/MS/MS analysis; assay type: ADME, organism-based; design: dose 10 mg/kg, route oral; conditions: in vivo, read-out: beta t1/2 (converted)
[17] = system: SW-620; test: Induction of apoptosis in human SW620 cells assessed as late apoptotic cells at 1 uM after 24 hrs by TUNEL assay; assay type: functional
[18] = system: NCI-H460; test: Antitumor activity against human NCI-H460 cells xenografted in athymic mouse assessed as delay in tumor growth at 100 mg/kg, po administered QD on day 1 after implantation for 5 days; assay type: functional
[19] = Apparent permeability across human Caco-2 cell membrane; assay type: ADME, cell-based
[20] = biological target: Mitogen-activated protein kinase 14 (Homo sapiens, UniProt Q16539); test: Inhibition of SAPK2A
Chain of Mitogen-activated protein kinase 14 (Q16539 whole entry): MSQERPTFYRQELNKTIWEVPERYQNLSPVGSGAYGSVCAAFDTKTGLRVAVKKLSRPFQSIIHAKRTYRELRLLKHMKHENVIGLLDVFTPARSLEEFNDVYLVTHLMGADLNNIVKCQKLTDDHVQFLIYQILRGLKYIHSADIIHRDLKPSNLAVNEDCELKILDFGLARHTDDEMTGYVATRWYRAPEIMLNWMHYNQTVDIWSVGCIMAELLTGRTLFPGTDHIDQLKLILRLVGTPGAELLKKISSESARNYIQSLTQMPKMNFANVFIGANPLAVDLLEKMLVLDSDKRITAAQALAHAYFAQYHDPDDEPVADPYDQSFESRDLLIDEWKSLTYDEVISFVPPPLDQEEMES

[21] = biological target: Cyclin-dependent kinase 7/ cyclin H (Homo sapiens, UniProt P50613); test: Inhibition of CDK7/Cyclin H; assay type: protein-complex assay
Chain of Cyclin-dependent kinase 7/ cyclin H (P51946 whole entry): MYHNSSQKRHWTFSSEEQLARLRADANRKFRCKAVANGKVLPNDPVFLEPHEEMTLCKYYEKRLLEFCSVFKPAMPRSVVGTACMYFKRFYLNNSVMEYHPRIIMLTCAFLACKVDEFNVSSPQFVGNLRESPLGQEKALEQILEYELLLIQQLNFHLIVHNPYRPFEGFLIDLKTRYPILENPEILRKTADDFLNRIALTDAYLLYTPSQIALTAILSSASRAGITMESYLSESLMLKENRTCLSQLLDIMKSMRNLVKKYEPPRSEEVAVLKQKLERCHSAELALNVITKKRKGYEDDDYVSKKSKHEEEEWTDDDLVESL
Chain of Cyclin-dependent kinase 7/ cyclin H (P50613 whole entry): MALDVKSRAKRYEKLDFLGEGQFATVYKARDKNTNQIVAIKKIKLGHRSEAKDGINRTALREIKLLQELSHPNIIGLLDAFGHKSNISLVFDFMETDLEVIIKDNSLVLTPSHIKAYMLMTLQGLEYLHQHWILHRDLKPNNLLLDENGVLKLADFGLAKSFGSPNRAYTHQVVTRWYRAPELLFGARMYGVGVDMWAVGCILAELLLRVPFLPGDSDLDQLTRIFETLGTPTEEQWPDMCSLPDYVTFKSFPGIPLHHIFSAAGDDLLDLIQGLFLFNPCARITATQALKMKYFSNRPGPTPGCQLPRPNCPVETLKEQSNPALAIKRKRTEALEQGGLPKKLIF

[22] = system: HCT-116; test: Cytotoxicity against human HCT116 cells after 96 hrs by MTT assay; assay type: functional, cell-based; conditions: HCT-116, 96 h
[23] = system: HeLa; test: Inhibition of Aurora kinase in human HeLa cells assessed as reduction of histone H3 serine-10 phosphorylation at 1 uM after 7 hrs immunofluorescence microscopy; assay type: cell-based
[24] = system: Mus musculus; test: Toxicity in athymic mouse xenografted with human NCI-H460 cells assessed as body weight loss at 100 mg/kg, po administered QD on day 1 after implantation for 5 days measured on day 8; assay type: organism-based; design: dose 100 mg/kg, route oral; conditions: in vivo, 120 h
[25] = system: Mus musculus; test: Toxicity in athymic mouse xenografted with human NCI-H460 cells assessed as body weight loss at 75 mg/kg, po administered QD on day 1 after implantation for 5 days measured on day 13; assay type: organism-based; design: dose 75 mg/kg, route oral; conditions: in vivo, 120 h
[26] = system: BXPC-3; test: Cytotoxicity against human BxPC3 cells after 96 hrs by MTT assay; assay type: functional, cell-based; conditions: BXPC-3, 96 h
[27] = system: Liver microsomes; test: Intrinsic clearance in rat liver microsomes by LC/MS/MS analysis; assay type: ADME, Microsome
[28] = system: K562; test: Cytotoxicity against human K562 cells after 96 hrs by MTT assay; assay type: functional, cell-based; conditions: K562, 96 h
[29] = Cytotoxicity against human MESSA cells after 96 hrs by MTT assay; assay type: functional, cell-based; conditions: MES-SA
[30] = Antitumor activity against mouse P388D1 cells xenografted in BALB/c mouse assessed as increase in life span at 45 mg/kg, po administered BID on days 1-3 and 7-9 after tumor implantation relative to control
[31] = Fraction unbound in rat plasma by equilibrium dialysis; assay type: ADME, cell-free
[32] = system: SW-620; test: Induction of apoptosis in human SW620 cells assessed as late apoptotic cells at 1 uM after 48 hrs by TUNEL assay; assay type: functional
[33] = system: NCI-H460; test: Cytotoxicity against human NCI-H460 cells after 96 hrs by MTT assay; assay type: functional, cell-based; conditions: NCI-H460, 96 h
[34] = AUC (0 to 24 hrs) in Wistar rat at 10 mg/kg, po after 24 hrs by LC/MS/MS analysis; assay type: ADME, organism-based; design: time < 24 hr, dose 10 mg/kg, route oral; conditions: plasma
[35] = Half life in rat liver microsomes by LC/MS/MS analysis; assay type: ADME, Microsome
[36] = system: MV4-11; test: Cytotoxicity against human MV4-11 cells after 96 hrs by MTT assay; assay type: functional, cell-based; conditions: MV4-11, 96 h
[37] = system: HL-60; test: Cytotoxicity against human HL60 cells after 96 hrs by MTT assay; assay type: functional, cell-based; conditions: HL-60, 96 h
[38] = system: A549; test: Cell cycle arrest in asynchronous human A549 cells assessed as accumulation of cyclin B1-negative tetraploid cells at G1 phase at 0.5 to 2 uM after 24 hrs by FACS analysis; assay type: functional, cell-based
[39] = biological target: T1, Cytochrome P450 1A; test: Inhibition of human recombinant CYP1A at 5 uM; assay type: ADME; conditions: recombinant enzyme
[40] = system: MCF7; test: Induction of p53 protein expression in human MCF7 cells at 0.07 to 10 uM after 7 hrs by fluorescent microscopy; assay type: functional, cell-based
[41] = system: NCI-H460; test: Antitumor activity against human NCI-H460 cells xenografted in athymic mouse assessed as reduction in mean tumor volume at 100 mg/kg, po administered QD on day 1 after implantation for 5 days measured on day 6 relative to control; assay type: functional; design: scale not given: the % may be the effect or the level left
[42] = biological target: Cytochrome P450 2C9 (Homo sapiens, UniProt P11712); test: Inhibition of human recombinant CYP2C9 at 5 uM; assay type: ADME; conditions: recombinant enzyme
Chain of Cytochrome P450 2C9 (P11712 whole entry): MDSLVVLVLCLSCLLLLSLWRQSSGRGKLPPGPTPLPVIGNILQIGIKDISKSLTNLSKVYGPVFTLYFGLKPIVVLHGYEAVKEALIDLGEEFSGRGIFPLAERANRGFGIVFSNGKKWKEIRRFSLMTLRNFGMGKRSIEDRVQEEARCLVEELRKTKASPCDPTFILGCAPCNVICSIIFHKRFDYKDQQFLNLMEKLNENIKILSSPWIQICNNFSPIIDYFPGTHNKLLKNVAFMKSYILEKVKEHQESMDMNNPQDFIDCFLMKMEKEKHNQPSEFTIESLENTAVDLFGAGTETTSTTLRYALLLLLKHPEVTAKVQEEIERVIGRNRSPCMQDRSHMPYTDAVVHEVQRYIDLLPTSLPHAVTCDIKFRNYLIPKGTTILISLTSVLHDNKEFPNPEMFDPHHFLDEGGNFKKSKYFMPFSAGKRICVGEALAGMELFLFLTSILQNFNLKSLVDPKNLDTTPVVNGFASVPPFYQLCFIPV

[43] = system: NCI-H460; test: Antitumor activity against human NCI-H460 cells xenografted in athymic mouse assessed as reduction in mean tumor volume at 100 mg/kg, po administered QD on day 1 after implantation for 5 days measured on day 9 relative to control; assay type: functional; design: scale not given: the % may be the effect or the level left
[44] = system: SW-620; test: Effect on mitotic index in human SW620 cells assessed as appearance of polyploid cells at 1 uM after 48 hrs by propidium iodide staining-based FACS analysis; assay type: functional, cell-based
[45] = Oral bioavailability in Wistar rat at 10 mg/kg after 24 hrs by LC/MS/MS analysis; assay type: ADME, organism-based; conditions: in vivo
[46] = system: MCF7; test: Cytotoxicity against human MCF7 cells after 96 hrs by MTT assay; assay type: functional, cell-based; conditions: MCF7, 96 h
[47] = system: U2OS; test: Inhibition of Aurora kinase in nocodazole-synchronized human U2OS cells assessed as reduction of histone H3 serine-10 phosphorylation at 0.07 to 10 uM after 2 hrs immunofluorescence microscopy; assay type: cell-based

Cc1nc(N)sc1-c1ccnc(Nc2ccc(N3CCOCC3)cc2)n1 [CYC-116]
IC50 [1]: 110 nM
Vd/F [2]: 8.5 L/kg
Ki [3]: > 10000 nM
inhibition (INH) [4]: Not Active
CL/F [5]: 33.3 mL/min/kg
Activity [6]: 183%
Ki [7]: > 10000 nM
Ki [8]: > 10000 nM
IC50 [9]: 278 nM
pKa [10]: 4.4
Cmax [11]: 3.9 µM
Activity [12]: Active
IC50 [13]: 170 nM
Ki [14]: > 10000 nM
Activity [15]: 64.8%
half-life [16]: 3 h
Activity [17]: 9.3%
Activity [18]: 5.8 days
Papp [19]: 47 ×10⁻⁶ cm/s
Ki [20]: > 10000 nM
Ki [21]: > 10000 nM
IC50 [22]: 340 nM
inhibition [23]: Active
Activity [24]: Toxic
Activity [25]: Non-toxic
IC50 [26]: 1630 nM
clearance [27]: 42.3 µL/min/mg
IC50 [28]: 1380 nM
IC50 [29]: 90 nM
Activity [30]: 172%
fraction unbound [31]: 0.93
Activity [32]: 34.7%
IC50 [33]: 681 nM
AUC(0-t) at 24 h [34]: 13.6 µM·h
half-life [35]: 0.547 h
IC50 [36]: 34 nM
IC50 [37]: 372 nM
Activity [38]: Active
inhibition (INH) [39]: Active
Activity [40]: inactive
Activity [41]: 40%
inhibition (INH) [42]: Active
Activity [43]: 19%
Activity [44]: Active
bioavailability [45]: 38%
IC50 [46]: 599 nM
inhibition [47]: Active
